According to ChEMBL document CHEMBL2150972, “Hepatitis C virus protease inhibitors: patent highlight” (ACS Med Chem Lett, 2012):

How the values were obtained:
Hepatitis C virus [1] = assay: Antiviral activity against HCV assessed as inhibition of viral RNA replication by cell based luciferase reporter gene assay; type: functional, organism-based, Hepacivirus hominis
Hepatitis C virus [2] = assay: Antiviral activity against HCV by HCVSPF-CY1B assay; type: functional, organism-based, Hepacivirus hominis

| EC50 (Hepatitis C virus [1]) [nM] | EC50 (Hepatitis C virus [2]) [nM] | SMILES |
| --- | --- | --- |
| 290 | – | O=C(N[C@H]1CCCCC/C=C/[C@@H]2C[C@@]2(C(=O)NS(=O)(=O)C2CC2)NC(=O)[C@@H]2C[C@@H](Oc3ccncc3)CN2C1=O)OCCF |
| – | 34 | CCOc1cc(O[C@@H]2C[C@H]3C(=O)N[C@]4(C(=O)NS(=O)(=O)C5CC5)C[C@H]4/C=C/CC[C@@H]4CC4[C@H](NC(=O)c4ccn(C)n4)C(=O)N3C2)ccn1 (some centres not stated) |
